pIC50: −log10 of the molar value.
How the values were obtained:
[1] = test system: HL-60(TB); assay: Growth inhibition of human HL-60(TB) cells incubated for 48 hrs by sulforhodamine B assay; type: functional, cell-based; conditions: HL-60, 48 h
[2] = test system: A549; assay: Growth inhibition of human A549/ATCC cells incubated for 48 hrs by sulforhodamine B assay; type: functional, cell-based; conditions: A549, 48 h
[3] = test system: UACC-62; assay: Growth inhibition of human UACC62 cells incubated for 48 hrs by sulforhodamine B assay; type: functional, cell-based; conditions: UACC-62, 48 h
[4] = test system: SK-OV-3; assay: Growth inhibition of human SKOV3 cells incubated for 48 hrs by sulforhodamine B assay; type: functional, cell-based; conditions: SK-OV-3, 48 h
[5] = test system: HCT-116; assay: Growth inhibition of human HCT116 cells assessed as cell growth at 0.01 uM incubated for 48 hrs by sulforhodamine B assay relative to control; type: functional; conditions: HCT-116, 48 h, read-out: Activity
[6] = test system: SW-620; assay: Growth inhibition of human SW620 cells assessed as cell growth at 0.01 uM incubated for 48 hrs by sulforhodamine B assay relative to control; type: functional; conditions: SW-620, 48 h, read-out: Activity
[7] = test system: SNB-19; assay: Growth inhibition of human SNB19 cells assessed as cell growth at 0.01 uM incubated for 48 hrs by sulforhodamine B assay relative to control; type: functional; conditions: SNB-19, 48 h, read-out: Activity
[8] = test system: SNB-75; assay: Growth inhibition of human SNB75 cells assessed as cell growth at 0.01 uM incubated for 48 hrs by sulforhodamine B assay relative to control; type: functional; conditions: SNB-75, 48 h, read-out: Activity
[9] = test system: SK-MEL-2; assay: Growth inhibition of human SK-MEL-2 cells assessed as cell growth at 0.01 uM incubated for 48 hrs by sulforhodamine B assay relative to control; type: functional; conditions: SK-MEL-2, 48 h, read-out: Activity
[10] = test system: IGROV-1; assay: Growth inhibition of human IGROV1 cells assessed as cell growth at 0.01 uM incubated for 48 hrs by sulforhodamine B assay relative to control; type: functional; conditions: IGROV-1, 48 h, read-out: Activity
[11] = test system: BT-549; assay: Growth inhibition of human BT549 cells assessed as cell growth at 0.01 uM incubated for 48 hrs by sulforhodamine B assay relative to control; type: functional; conditions: BT-549, 48 h, read-out: Activity
[12] = test system: NCI-H522; assay: Growth inhibition of human NCI-H522 cells assessed as cell growth at 0.1 uM incubated for 48 hrs by sulforhodamine B assay relative to control; type: functional; conditions: NCI-H522, 48 h, read-out: Activity
[13] = test system: HCC 2998; assay: Growth inhibition of human HCC2998 cells assessed as cell growth at 0.1 uM incubated for 48 hrs by sulforhodamine B assay relative to control; type: functional; conditions: HCC 2998, 48 h, read-out: Activity
[14] = test system: OVCAR-5; assay: Growth inhibition of human OVCAR5 cells assessed as cell growth at 0.1 uM incubated for 48 hrs by sulforhodamine B assay relative to control; type: functional; conditions: OVCAR-5, 48 h, read-out: Activity
[15] = test system: OVCAR-8; assay: Growth inhibition of human OVCAR8 cells assessed as cell growth at 0.1 uM incubated for 48 hrs by sulforhodamine B assay relative to control; type: functional; conditions: OVCAR-8, 48 h, read-out: Activity
[16] = test system: SK-OV-3; assay: Growth inhibition of human SKOV3 cells assessed as cell growth at 0.1 uM incubated for 48 hrs by sulforhodamine B assay relative to control; type: functional; conditions: SK-OV-3, 48 h, read-out: Activity
[17] = test system: A498; assay: Growth inhibition of human A498 cells assessed as cell growth at 0.1 uM incubated for 48 hrs by sulforhodamine B assay relative to control; type: functional; conditions: A498, 48 h, read-out: Activity
[18] = test system: SN12C; assay: Growth inhibition of human SN12C cells assessed as cell growth at 0.1 uM incubated for 48 hrs by sulforhodamine B assay relative to control; type: functional; conditions: read-out: Activity
[19] = test system: DU-145; assay: Growth inhibition of human DU145 cells assessed as cell growth at 0.1 uM incubated for 48 hrs by sulforhodamine B assay relative to control; type: functional; conditions: DU-145, 48 h, read-out: Activity
[20] = test system: K562; assay: Growth inhibition of human K562 cells assessed as cell growth at 1 uM incubated for 48 hrs by sulforhodamine B assay relative to control; type: functional; conditions: K562, 48 h, read-out: Activity
[21] = test system: A549; assay: Growth inhibition of human A549/ATCC cells assessed as cell growth at 1 uM incubated for 48 hrs by sulforhodamine B assay relative to control; type: functional; conditions: A549, 48 h, read-out: Activity
[22] = test system: NCI-H322M; assay: Growth inhibition of human NCI-H322M cells assessed as cell growth at 1 uM incubated for 48 hrs by sulforhodamine B assay relative to control; type: functional; conditions: read-out: Activity
[23] = test system: HCC 2998; assay: Growth inhibition of human HCC2998 cells assessed as cell growth at 1 uM incubated for 48 hrs by sulforhodamine B assay relative to control; type: functional; conditions: HCC 2998, 48 h, read-out: Activity
[24] = test system: HCT-116; assay: Growth inhibition of human HCT116 cells assessed as cell growth at 1 uM incubated for 48 hrs by sulforhodamine B assay relative to control; type: functional; conditions: HCT-116, 48 h, read-out: Activity
[25] = test system: HCT-15; assay: Growth inhibition of human HCT15 cells assessed as cell growth at 1 uM incubated for 48 hrs by sulforhodamine B assay relative to control; type: functional; conditions: HCT-15, 48 h, read-out: Activity
[26] = test system: A498; assay: Growth inhibition of human A498 cells assessed as cell growth at 1 uM incubated for 48 hrs by sulforhodamine B assay relative to control; type: functional; conditions: A498, 48 h, read-out: Activity
[27] = test system: CAKI-1; assay: Growth inhibition of human Caki1 cells assessed as cell growth at 1 uM incubated for 48 hrs by sulforhodamine B assay relative to control; type: functional; conditions: CAKI-1, 48 h, read-out: Activity
[28] = test system: M14; assay: Growth inhibition of human M14 cells assessed as cell growth at 100 uM incubated for 48 hrs by sulforhodamine B assay relative to control; type: functional; conditions: M14, 48 h, read-out: Activity
[29] = test system: SK-MEL-2; assay: Growth inhibition of human SK-MEL-2 cells assessed as cell growth at 100 uM incubated for 48 hrs by sulforhodamine B assay relative to control; type: functional; conditions: SK-MEL-2, 48 h, read-out: Activity
[30] = test system: UACC-62; assay: Growth inhibition of human UACC62 cells assessed as cell growth at 100 uM incubated for 48 hrs by sulforhodamine B assay relative to control; type: functional; conditions: UACC-62, 48 h, read-out: Activity
[31] = test system: MDA-MB-231; assay: Growth inhibition of human MDA-MB-231 cells assessed as cell growth at 100 uM incubated for 48 hrs by sulforhodamine B assay relative to control; type: functional; conditions: MDA-MB-231, 48 h, read-out: Activity
[32] = read-out: LC50 (the source's name)
[33] = read-out: pLC50 (the source's name) (converted)

COc1cc(Cl)cc(-c2nn(-c3cccc(NC(=O)c4ccc(N5CCOCC5)c(C(F)(F)F)c4)c3)cc2-c2ccncc2)c1
GI50 ([1]; read-out: GI50): 4.19 µM
LC50 ([1]; read-out: LC50): > 100 µM
TGI ([1]; read-out: TGI): 33.2 µM
GI50 ([1]; read-out: pGI50 (converted)): 4.17 µM
LC50 ([1]; read-out: pLC50 (converted)): > 100 µM
TGI ([1]; read-out: pTGI (converted)): 33.1 µM
pIC50 [2]: 5.04
GI50 ([2]; read-out: GI50): 9.15 µM
CC50 [2, 32]: > 100 µM
TGI ([2]; read-out: TGI): > 100 µM
GI50 ([2]; read-out: pGI50 (converted)): 9.12 µM
CC50 [2, 33]: > 100 µM
TGI ([2]; read-out: pTGI (converted)): > 100 µM
pIC50 [3]: 5.04
GI50 ([3]; read-out: GI50): 9.1 µM
CC50 [3, 32]: > 100 µM
TGI ([3]; read-out: TGI): > 100 µM
GI50 ([3]; read-out: pGI50 (converted)): 9.12 µM
CC50 [3, 33]: > 100 µM
TGI ([3]; read-out: pTGI (converted)): > 100 µM
GI50 ([4]; read-out: GI50): > 100 µM
CC50 [4, 32]: > 100 µM
TGI ([4]; read-out: TGI): > 100 µM
GI50 ([4]; read-out: pGI50 (converted)): > 100 µM
CC50 [4, 33]: > 100 µM
TGI ([4]; read-out: pTGI (converted)): > 100 µM
growth at 0.01 µM [5]: 97%
growth at 0.01 µM [6]: 96%
growth at 0.01 µM [7]: 96%
growth at 0.01 µM [8]: 58%
growth at 0.01 µM [9]: 96%
growth at 0.01 µM [10]: 103%
growth at 0.01 µM [11]: 104%
growth at 0.1 µM [12]: 81%
growth at 0.1 µM [13]: 94%
growth at 0.1 µM [14]: 78%
growth at 0.1 µM [15]: 100%
growth at 0.1 µM [16]: 102%
growth at 0.1 µM [17]: 85%
growth at 0.1 µM [18]: 95%
growth at 0.1 µM [19]: 97%
growth at 1 µM [20]: 91%
growth at 1 µM [21]: 52%
growth at 1 µM [22]: 55%
growth at 1 µM [23]: 100%
growth at 1 µM [24]: 90%
growth at 1 µM [25]: 52%
growth at 1 µM [26]: 55%
growth at 1 µM [27]: 94%
growth at 100 µM [28]: 5%
growth at 100 µM [29]: 15%
growth at 100 µM [30]: 10%
growth at 100 µM [31]: -10%

COc1cc(Cl)cc(-c2nn(-c3cccc(NC(=O)Nc4ccc(Cl)c(C(F)(F)F)c4)c3)cc2-c2ccncc2)c1
GI50 ([1]; read-out: GI50): 1.55 µM
LC50 ([1]; read-out: LC50): > 100 µM
TGI ([1]; read-out: TGI): 55.3 µM
GI50 ([1]; read-out: pGI50 (converted)): 1.66 µM
LC50 ([1]; read-out: pLC50 (converted)): > 100 µM
TGI ([1]; read-out: pTGI (converted)): 5.5 µM
pIC50 [2]: 6.17
GI50 ([2]; read-out: GI50): 0.676 µM
CC50 [2, 32]: 4.32 µM
TGI ([2]; read-out: TGI): 10.6 µM
GI50 ([2]; read-out: pGI50 (converted)): 0.676 µM
CC50 [2, 33]: 46.8 µM
TGI ([2]; read-out: pTGI (converted)): 10.7 µM
pIC50 [3]: 5.90
GI50 ([3]; read-out: GI50): 1.27 µM
CC50 [3, 32]: 9.51 µM
TGI ([3]; read-out: TGI): 35.4 µM
GI50 ([3]; read-out: pGI50 (converted)): 1.29 µM
CC50 [3, 33]: 9.77 µM
TGI ([3]; read-out: pTGI (converted)): 4.9 µM
GI50 ([4]; read-out: GI50): 3.15 µM
CC50 [4, 32]: > 100 µM
TGI ([4]; read-out: TGI): 95.5 µM
GI50 ([4]; read-out: pGI50 (converted)): 3.16 µM
CC50 [4, 33]: > 100 µM
TGI ([4]; read-out: pTGI (converted)): 11.7 µM
growth at 0.01 µM [5]: 104%
growth at 0.01 µM [6]: 98%
growth at 0.01 µM [7]: 92%
growth at 0.01 µM [8]: 57%
growth at 0.01 µM [9]: 102%
growth at 0.01 µM [10]: 112%
growth at 0.01 µM [11]: 92%
growth at 0.1 µM [12]: 77%
growth at 0.1 µM [13]: 94%
growth at 0.1 µM [14]: 73%
growth at 0.1 µM [15]: 96%
growth at 0.1 µM [16]: 100%
growth at 0.1 µM [17]: 59%
growth at 0.1 µM [18]: 100%
growth at 0.1 µM [19]: 98%
growth at 1 µM [20]: 35%
growth at 1 µM [21]: 40%
growth at 1 µM [22]: 89%
growth at 1 µM [23]: 97%
growth at 1 µM [24]: 38%
growth at 1 µM [25]: 35%
growth at 1 µM [26]: 78%
growth at 1 µM [27]: 45%
growth at 100 µM [28]: -70%
growth at 100 µM [29]: -85%
growth at 100 µM [30]: -85%
growth at 100 µM [31]: -88%
